Measurements as given in article PMC12693327, “SERAAK2 as a Serotonin Receptor Ligand: Structural and Pharmacological In Vitro and In Vivo Evaluation” (Molecules, 2025).
“Also recorded” adds a separate entry of the source.

Tests used:
CYP2D6 = CYP2D6 (Homo sapiens, UniProt P10635); assay: CYP2D6 luminescent assay (Glo kit)
Procedure: The inhibitory potential of the compound against the CYP2D6 isoform was evaluated employing a methodology analogous to the CYP3A4 assay, albeit with a different set of reference compounds.
The effect of SERAAK2 on the activity of the cytochrome P450 isoforms CYP3A4 and CYP2D6 was tested using commercial luminescence assays (Glo kits bought from Promega, Medison, WI, USA). The experiment was performed twice with triplicate samples, following the manufacturer’s guidelines and established procedures.

HepG2 cells = assay: MTS cytotoxicity assay in HepG2 cells; type: cell-based, human; details: 72 h
Procedure: (§1) The cytotoxic potential of SERAAK2 was evaluated in two human-derived cell lines chosen for their physiological relevance: HepG2 (hepatocellular carcinoma) and SH-SY5Y (neuroblastoma). […] It is particularly noteworthy that the use of the SERAAK2 compound at a concentration of 30 µM reduces the number of viable cells below the level of the positive control (doxorubicin) at the same concentration (Table 3). […] Under the experimental conditions used, after 72 h of incubation, a fraction of doxorubicin-treated cells remains metabolically active and generates a low signal in the MTS assay. The enhanced signal reduction observed in the MTS assay for the tested compound, compared to doxorubicin, indicates strong cytotoxic activity leading to necrosis of the entire cell population.
(§2) An assessment of the cytotoxic potential of SERAAK2 was carried out utilizing the colorimetric MTS assay. This investigation was executed on both HepG2 and SH-SY5Y cell lines, adhering to an identical procedure. The cell lines, sourced from the American Type Culture Collection (Manassas, VA, USA), were cultured under standard conditions (5% CO2, 37 °C) in DMEM/F12 medium (#31330-038, ThermoFisher Scientific, Waltham, MA, USA). The medium was supplemented with 10% Fetal Bovine Serum (FBS, #A5256801, ThermoFisher Scientific) and a Penicillin–Streptomycin solution (#15140-122, ThermoFisher Scientific) until their use in the study. Cells within passage numbers 15 to 25 were plated in 96-well plates at a density of 5000 cells per well in 200 μL of medium and allowed to adhere during a 24 h incubation at 37 °C with 5% CO2. […] The plates were then subsequently returned to the 37 °C incubator, after which absorbance was recorded with a Spark microplate reader; this measurement occurred after 1 h for the HepG2 line and 3 h for the SH-SY5Y line. The ultimate cell viability percentage was determined by comparing results to the control wells, which represented 100% viability, and the wells treated with 10 μM doxorubicin, which were defined as 0% viability. […]

SH-SY5Y cells = assay: MTS cytotoxicity assay in SH-SY5Y cells; type: cell-based, human; details: 72 h
Procedure: as §1, §2

[1] = PAMPA membrane permeability; type: in vitro ADME; details: 100 µM in PBS pH 7.4, 5 h
Procedure: In this study, PAMPA was employed to evaluate the passive diffusion of SERAAK2 through a lipid-infused artificial membrane.
The membrane permeability assay was conducted employing the pre-coated PAMPA Plate System Gentest from Corning (Tewksbury, MA, USA), following the manufacturer’s provided instructions. SERAAK2, along with reference compounds, were prepared in PBS buffer at a pH of 7.4 to reach a final concentration of 100 µM, and these solutions were loaded onto the donor plate of the 96-well system. […] The permeability coefficient (Pe, expressed in cm/s) was subsequently derived by applying the calculation formula supplied by the manufacturer of the PAMPA system.

mice [2] = assay: Motor coordination, chimney test; type: in vivo; details: 7.5 mg/kg i.p., 60 min before test, similar to control
Procedure: (§3) The investigated compound (SER2AAK2) was bought from Enamine (purity over 95%) and in all tests was administered intraperitoneally (i.p.), spread in a drop of Tween 80, and diluted with an aqueous solution of 0.5% methylcellulose (tylose) and injected 60 min before the tests in a volume of 10 mL/kg. Control groups received tylose injections of the same volume and via the same route of administration.
The effects of the SER2AAK2 compound were also measured in the rotarod and chimney tests. In the rotarod test, mice were evaluated for their ability to maintain balance on a constantly rotating rod (18 rpm) for 1 min. The chimney test involved placing a mouse in a horizontal polymer tube (3 cm diameter, 25 cm length). Once the mouse reached the far end, the tube was positioned vertically, requiring the animal to climb backwards to exit. Right motor coordination was defined as exiting the chimney within 60 s. Prior to testing, mice underwent a 3-day training. Only those animals that were able to stay on the rotating rod or leave the chimney within the required time were included in the study.

mice [3] = assay: Forced swim test (FST); type: in vivo; details: 7.5 mg/kg i.p., 60 min before test
Procedure: as §3
The study was carried out using the test proposed by R. Porsolt. The method is based on the observation of an animal forced to swim in a confined space from which there is no escape. After an initial period of vigorous attempts to get out, the animal finally gives up on escaping. The test consists of immersing the mouse individually in a cylindrical beaker (diameter 10 cm, height 25 cm) filled with water (at a temperature of 23–25 °C) at a height of 10 cm for 6 min. The immobility time was measured during the final 4 min of the test (between 2 and 6 min).

mice [4] = assay: Amphetamine-induced hyperactivity; type: in vivo; details: 7.5 mg/kg i.p. 60 min before test, amphetamine 3 mg/kg 30 min later
Procedure: as §3
Locomotor activity of the mice was assessed using the Opto-Varimex-4 Auto-Track system (Columbus Instruments, OH, USA). Each mouse was placed individually in a testing cage for 25 min—5 min for acclimatization, followed by 20 min of activity recording. (6a) The total distance traveled (in centimeters) was measured. Cages were cleaned with 10% ethanol between sessions.

[5] = molecular target: serotonin 5-HT2A receptor; design: method as in PMID 38619283; details: cited from earlier work
5-HT7 receptor = molecular target: 5-HT7 receptor; design: method as in PMID 38619283; details: cited from earlier work
dopamine D2 receptor = system: dopamine D2 receptor; design: method as in PMID 38619283; details: cited from earlier work

Sequence of CYP2D6 (P10635 whole entry, canonical isoform): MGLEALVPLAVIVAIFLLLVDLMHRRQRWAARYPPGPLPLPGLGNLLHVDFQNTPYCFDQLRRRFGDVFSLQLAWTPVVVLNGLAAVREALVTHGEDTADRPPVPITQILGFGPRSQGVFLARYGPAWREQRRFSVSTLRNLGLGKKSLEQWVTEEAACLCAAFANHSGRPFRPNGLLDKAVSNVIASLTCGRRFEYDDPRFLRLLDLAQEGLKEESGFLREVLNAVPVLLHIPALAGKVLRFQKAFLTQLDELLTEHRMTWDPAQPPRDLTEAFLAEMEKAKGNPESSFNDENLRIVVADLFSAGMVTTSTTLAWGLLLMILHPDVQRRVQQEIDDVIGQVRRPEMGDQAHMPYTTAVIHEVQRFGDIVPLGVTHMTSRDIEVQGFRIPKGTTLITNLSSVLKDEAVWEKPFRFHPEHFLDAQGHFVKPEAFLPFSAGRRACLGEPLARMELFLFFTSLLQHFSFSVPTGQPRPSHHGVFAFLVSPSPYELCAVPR

IC50 (CYP2D6): 1000 nM
inhibition at 10 µM (CYP2D6; human): 90 ± 1%
Pe ± SD [1]: 1.1 ×10⁻⁶ cm/s
Papp at 5 h, 100 µM ([1]; read-out: Pe ± SD): 1.1 ± 0.35 ×10⁻⁶ cm/s
time to leave the chimney (mice [2]): about 13 s
SMILES: OC(CNCCc1c[nH]c2ccccc12)COc1ccc(Oc2ccccc2)cc1 (stereo not drawn) [SERAAK2]
cytotoxic effects in HepG2 cells (HepG2 cells; 0.3 µM): no cytotoxic effects
HepG2 cell viability (HepG2 cells; 3 µM): 85 % of the control
Percentage Reduction in the Number of Viable HepG2 Cells [Mean ± SEM] (HepG2 cells; 30 µM): 104 ± 1%
cytotoxic effects in SH-SY5Y cells (SH-SY5Y cells; 0.3 µM): no cytotoxic effects
Percentage Reduction in the Number of Viable SH-SY5Y Cells [Mean ± SEM] (SH-SY5Y cells; 30 µM): 108 ± 1%
FST immobility time (mice [3]): significant decrease in immobility time; also recorded: ↓ immobility (7.5 mg/kg) antidepressant-like effect connected with serotonergic modulation
amphetamine-induced hyperactivity (mice [4]): did not significantly modify this hyperactivity; also recorded: no effect
Ki [5]: 422 ± 74 nM
Ki (5-HT7 receptor): 914 ± 25 nM
percent of inhibition at 10 μM, dopamine D2 receptor (dopamine D2 receptor): 23 ± 6%
